Laboratory results published in patent publication US6372297B1, “Wood preservative oxathiazines” (Uniroyal Chemical Company, Inc., priority 1993, dated 2002).
Like-named read-outs stand apart in the source and are kept apart here.

Key:
Assay type in all cases: cell-based
[1] = tested on: Streptomyces albus; experiment: Wood preservative efficacy against bacteria and yeasts, tryptose agar plates; design: key: 0 = growth equal to control, 1 = inhibition, 2 = no growth
Procedure: (§1) Compositions were prepared by dissolving the compounds shown in Table 1 in 50% ethanol and further diluting with sterile distilled water. […] After cooling, the medium was inoculated with the bacteria listed below. After sufficient growth of the untreated cultures, the compounds were evaluated using the following rating system: 0=growth equal to control 1=inhibition of growth by the compound 2=no growth under the influence of the compound. In this Table, the higher numbers are the most preferred species. Streptomyces albus (gram pos)

[2] = tested on: Chaetomium globosum; experiment: Wood preservative efficacy against fungi, agar plate colony diameter
Procedure: (§2) Each plate was inoculated with a spore suspension or with a small piece of agar (1 mm) from the margin of an actively growing colony of the test fungus. The fungi employed are listed below. After incubation at 22° C. and 70% relative humidity during a period long enough to allow significant growth of untreated controls, the diameters of the fungus colonies were measured and scored using the following rating system: 0=free of fungal growth 1=25% of fungal growth compared to untreated 2=50% of fungal growth compared to untreated 3=75% of fungal growth compared to untreated 4=Growth equal to that of untreated The scores measured for wood preservation efficacy of the compounds of this invention are listed in Tables 6a and 6b. In these Tables, the lower numbers are the most preferred species. Chaetomium globosum

[3] = tested on: Penicillium islandicum; experiment: as above; design: key: 1 = 25%, 2 = 50%, 3 = 75%, 4 = 100% of untreated fungal growth
Procedure: (§3) The compounds shown in Table 1 were dissolved in 50% ethanol and then diluted with sterile water to give the required concentrations of 1 and 10 ppm in the test agar plates. Malt extract sugar (3%) was added aseptically and uniform distribution was obtained by shaking. Each plate was inoculated with a spore suspension or with a small piece of agar (1 mm) from the margin of an actively growing colony of the test fungus. The fungi employed are listed below. After incubation at 22° C. and 70% relative humidity during a period long enough to allow significant growth of untreated controls, the diameters of the fungus colonies were measured and scored using the following rating system:
(§4) 1=25% of fungal growth compared to untreated
(§5) 2=50% of fungal growth compared to untreated
(§6) 3=75% of fungal growth compared to untreated
(§7) 4=Growth equal to that of untreated
(§8) In these Tables, the lower numbers are the most preferred species.

[4] = tested on: Flavobacterium sp.; experiment: Wood preservative efficacy against bacteria and yeasts, tryptose agar plates; design: key: 0 = growth equal to control, 1 = growth inhibited, 2 = no growth
Procedure: as §1, with “Flavobacterium sp.” for “Streptomyces albus”, “neg)” for “pos)”

[5] = tested on: Trichoderma viride; experiment: Wood preservative efficacy against fungi, agar plate colony diameter
Procedure: as §2, with “Trichoderma viride” for “Chaetomium globosum”

[6] = tested on: Aspergillus niger; experiment: as above
Procedure: as §2, with “Aspergillus niger” for “Chaetomium globosum”

[7] = tested on: Aureobasidium pullulans; experiment: as above; design: key: 1=25%, 2=50%, 3=75%, 4=100% of untreated growth; lower better
Procedure: as §3, §4, §5, §6, §7, §8

[8] = tested on: Escherichia coli; experiment: Wood preservative efficacy against bacteria and yeasts, tryptose agar plates; design: key: 0 = growth equal to control, 1 = growth inhibited, 2 = no growth
Procedure: as §1, with “Escherichia coli” for “Streptomyces albus”

[9] = tested on: Bacillus cereus mycoides; design: scale not given here
[10] = tested on: Aspergillus flavus; experiment: Wood preservative efficacy against fungi, agar plate colony diameter
Procedure: as §2, with “Aspergillus flavus” for “Chaetomium globosum”

[11] = tested on: Mucor sp.; experiment: as above
Procedure: as §2, with “Mucor sp.” for “Chaetomium globosum”

Row | SMILES | Score of bactericidal activity, S. albus ([1]; 100 ppm in tryptose agar) | Score of fungicidal activity, C. GLOBOSUM ([2]; Test dosage 10 ppm, Table 6A) | Score of fungicidal activity, P. ISLANDICUM ([3]; Test dosage 10 ppm, Table 6A) | Score of bactericidal activity, Flavobacter ([4]; 100 ppm in tryptose agar) | Score of fungicidal activity, T. VIRIDE ([5]; Test dosage 10 ppm, Table 6A) | Score of fungicidal activity, A. NIGER ([6]; Test dosage 10 ppm, Table 6A) | Score of fungicidal activity, A. PULLULANS ([7]; Test dosage 10 ppm, Table 6A) | Score of bactericidal activity, E. Coli ([8]; 100 ppm in tryptose agar) | Score of bactericidal activity, B. cereus mycoides ([9]; 10 ppm in tryptose agar) | Score of bactericidal activity, B. cereus mycoides ([9]; 100 ppm in tryptose agar) | Score of fungicidal activity, A. FLAVUS ([10]; Test dosage 10 ppm, Table 6A) | Score of bactericidal activity, S. albus ([1]; 10 ppm in tryptose agar) | Score of fungicidal activity, C. GLOBOSUM ([2]; 10 ppm, Table 6B) | Score of fungicidal activity, P. ISLANDICUM ([3]; 10 ppm, Table 6B) | Score of fungicidal activity, MUCOR SP ([11]; 100 ppm, Table 6B) | Score of bactericidal activity, Flavobacter ([4]; 10 ppm in tryptose agar) | Score of fungicidal activity, T. VIRIDE ([5]; 10 ppm, Table 6B) | Score of fungicidal activity, A. NIGER ([6]; 10 ppm, Table 6B) | Score of fungicidal activity, A. PULLULANS ([7]; 10 ppm, Table 6B) | Score of bactericidal activity, E. Coli ([8]; 10 ppm in tryptose agar) | further results
1 | C[S+]1CCON=C1c1ccc(Cl)cc1 (stereo not shown) [Compound 1] | 2 | 0 | 0 | 2 | 2 (50% of growth compared to untreated control) | 0 | 3 (75% of growth compared to untreated control) | 2 | 2 | 2 | 0 | – | – | – | – | – | – | – | – | – | –
2 | CC(=O)c1ccc(C2=NOCC[S+]2[O-])cc1 (stereo not shown) [Compound 14] | 2 | 4 | 4 | 2 | 3 (75% of growth compared to untreated control) | 3 (75% of growth compared to untreated control) | 4 | 2 | 2 | 2 | 2 (50% of growth compared to untreated control) | – | – | – | – | – | – | – | – | – | Score of fungicidal activity, MUCOR SP ([11]; Test dosage 10 ppm, Table 6A): 1 (25% of growth compared to untreated control)
3 | C[S+]1CCON=C1c1cc(Cl)cc(Cl)c1 (stereo not shown) [Compound 19] | 2 | – | – | 2 | – | – | – | 0 | 0 | 2 | – | 0 | 0 | 0 | 2 (50% of growth compared to untreated control) | 0 | 2 (50% of growth compared to untreated control) | 0 | 3 (75% of growth compared to untreated control) | 0 | Score of fungicidal activity, A. FLAVUS ([10]; 10 ppm, Table 6B): 0
4 | COC(=O)c1cccc(C2=NOCC[S+]2[O-])c1 (stereo not shown) [Compound 26] | 2 | – | – | 2 | – | – | – | 0 | 2 | 2 | – | 0 | 4 | 4 | 2 (50% of growth compared to untreated control) | 0 | 3 (75% of growth compared to untreated control) | 4 | 4 | 0 | Score of fungicidal activity, A. FLAVUS ([10]; 10 ppm, Table 6B): 4
5 | [O-][S+]1CCON=C1c1cccs1 (stereo not shown) [Compound 8] | 2 | 2 (50% of growth compared to untreated control) | 0 | 2 | 2 (50% of growth compared to untreated control) | 1 (25% of growth compared to untreated control) | 2 (50% of growth compared to untreated control) | 2 | 0 | 2 | 1 (25% of growth compared to untreated control) | – | – | – | – | – | – | – | – | – | –
6 | C[S+]1CCON=C1c1ccc(C(F)(F)F)cc1 (stereo not shown) [Compound 25] | 2 | – | – | 2 | – | – | – | 0 | 2 | 2 | – | 2 | 3 (75% of growth compared to untreated control) | 1 (25% of growth compared to untreated control) | 0 | 1 | 2 (50% of growth compared to untreated control) | 0 | 3 (75% of growth compared to untreated control) | 0 | Score of fungicidal activity, MUCOR SP ([11]; 10 ppm, Table 6B): 3 (75% of growth compared to untreated control); Score of fungicidal activity, A. FLAVUS ([10]; 10 ppm, Table 6B): 0
7 | [O-][S+]1CCON=C1c1ccc(Cl)c(Cl)c1 (stereo not shown) [Compound 4] | 2 | 0 | 0 | 2 | 1 (25% of growth compared to untreated control) | 0 | 2 (50% of growth compared to untreated control) | 2 | 2 | 2 | 0 | – | – | – | – | – | – | – | – | – | –
